Values quoted from earlier work, collected in patent US11549142B2, “CETP inhibitors for therapeutic use” (Hoffmann-La Roche Inc., priority 2013, dated 2023).

Tested on: patients
Settings: torcetrapib and atorvastatin concomitantly compared to atorvastatin alone; cited from earlier work

## CCOC(=O)N1c2ccc(C(F)(F)F)cc2[C@@H](N(Cc2cc(C(F)(F)F)cc(C(F)(F)F)c2)C(=O)OC)C[C@H]1CC [torcetrapib, (2R,4S)-4-[(3,5-bistrifluoromethylbenzyl)methoxycarbonylamino]-2-ethyl-6-trifluoromethyl-3,4-dihydro-2H-quinoline-1-carboxylic acid ethyl ester]
  reason for termination of the Phase III clinical trial: incidence of mortality
